#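 In this assay, cells in 96-well plates receive the compound at five concentrations for 48 hours. Endpoints are linearly interpolated between the surrounding concentrations. Here, GI50 denotes the concentration required for 50% inhibition of growth.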 Active and inactive are the calls of the source. Cut-off read from the data, not from the text of the source: active = GI50 up to about 1.1 µM and inactive = higher.
# Columns and labels:
# Assay in all cases: NCI tumour cell line growth inhibition, 48 h
# 786-0 = test system: 786-0
# CAKI-1 = test system: CAKI-1
# COLO 205 = test system: COLO 205
# EKVX = test system: EKVX
# HCT-116 = test system: HCT-116
# HL-60 = test system: HL-60
# IGROV-1 = test system: IGROV-1
# LOX IMVI = test system: LOX IMVI
# Malme-3M = test system: Malme-3M
# OVCAR-5 = test system: OVCAR-5
# OVCAR-8 = test system: OVCAR-8
# PC-3 = test system: PC-3
# SK-OV-3 = test system: SK-OV-3
# SW-620 = test system: SW-620
# UACC-62 = test system: UACC-62
# NCI-H226 = test system: NCI-H226
# NCI-H23 = test system: NCI-H23
# OVCAR-4 = test system: OVCAR-4
# BT-549 = test system: BT-549
SMILES,GI50 (786-0),GI50 (CAKI-1),GI50 (COLO 205),GI50 (EKVX),GI50 (HCT-116),GI50 (HL-60),GI50 (IGROV-1),GI50 (LOX IMVI),GI50 (Malme-3M),GI50 (OVCAR-5),GI50 (OVCAR-8),GI50 (PC-3),GI50 (SK-OV-3),GI50 (SW-620),GI50 (UACC-62),GI50 (NCI-H226),GI50 (NCI-H23),GI50 (OVCAR-4),GI50 (BT-549)
C/C=C/C(C#N)(/C=C/c1ccccc1)OP1(=O)OC(c2ccccc2)C(C)N1C (stereo unspecified),17.1 µM (inactive),23.3 µM (inactive),17.2 µM (inactive),20.6 µM (inactive),16.6 µM (inactive),12.6 µM (inactive),16.4 µM (inactive),18.2 µM (inactive),18.9 µM (inactive),20.1 µM (inactive),17.9 µM (inactive),17 µM (inactive),25.8 µM (inactive),16.1 µM (inactive),17.7 µM (inactive),–,–,–,–
CC(C)(C)OC(=O)C1CC[C@@H](CC(=O)Oc2ccc([N+](=O)[O-])cc2)N1 (stereo partly specified),> 100 µM (inactive),> 100 µM (inactive),> 100 µM (inactive),> 100 µM (inactive),> 100 µM (inactive),> 100 µM (inactive),> 100 µM (inactive),> 100 µM (inactive),> 100 µM (inactive),> 100 µM (inactive),> 100 µM (inactive),> 100 µM (inactive),> 100 µM (inactive),> 100 µM (inactive),> 100 µM (inactive),> 100 µM (inactive),> 100 µM (inactive),> 100 µM (inactive),–
O=C1CCC2c3ccccc3NCN12 (stereo unspecified),> 100 µM (inactive),> 100 µM (inactive),> 100 µM (inactive),> 100 µM (inactive),> 100 µM (inactive),> 100 µM (inactive),> 100 µM (inactive),> 100 µM (inactive),> 100 µM (inactive),> 100 µM (inactive),> 100 µM (inactive),> 100 µM (inactive),> 100 µM (inactive),> 100 µM (inactive),> 100 µM (inactive),> 100 µM (inactive),> 100 µM (inactive),> 100 µM (inactive),–
O=C1Cc2c(-c3cccs3)cc(-c3ccccc3)nc2-c2ccccc2N1,21.9 µM (inactive),21.6 µM (inactive),43.4 µM (inactive),33.7 µM (inactive),32.9 µM (inactive),–,13.7 µM (inactive),36.5 µM (inactive),9.95 µM (inactive),> 100 µM (inactive),1.45 µM (inactive),47.1 µM (inactive),24.4 µM (inactive),> 100 µM (inactive),> 100 µM (inactive),81.8 µM (inactive),> 100 µM (inactive),0.855 µM (active),> 100 µM (inactive)
C[N+](C)(C)CC(=O)N/N=C/c1oc(-c2c(O)ccc3ccccc23)c(-c2c(O)ccc3ccccc23)c1[N+](=O)[O-],19.9 µM (inactive),24.7 µM (inactive),21.9 µM (inactive),21.9 µM (inactive),12.2 µM (inactive),18.5 µM (inactive),11 µM (inactive),11.6 µM (inactive),11.4 µM (inactive),22.1 µM (inactive),19.1 µM (inactive),–,14.2 µM (inactive),21.5 µM (inactive),1.53 µM (inactive),17.4 µM (inactive),16.4 µM (inactive),21.5 µM (inactive),–
O=C1/C(=C\c2cccc(Oc3ccccc3)c2)SC(c2ccccc2)N1c1ccccc1Cl (stereo unspecified),25.6 µM (inactive),34 µM (inactive),21.8 µM (inactive),28.8 µM (inactive),14.9 µM (inactive),30.2 µM (inactive),–,22.2 µM (inactive),33.6 µM (inactive),76 µM (inactive),21.9 µM (inactive),–,25.4 µM (inactive),33.3 µM (inactive),25.5 µM (inactive),26.2 µM (inactive),17.5 µM (inactive),37.1 µM (inactive),21.3 µM (inactive)
CC(C)SC(NC(=O)C1C(C)(C)CCC1(C)C)C(=O)O (stereo unspecified),> 100 µM (inactive),–,> 100 µM (inactive),> 100 µM (inactive),> 100 µM (inactive),> 100 µM (inactive),> 100 µM (inactive),> 100 µM (inactive),–,> 100 µM (inactive),> 100 µM (inactive),> 100 µM (inactive),> 100 µM (inactive),> 100 µM (inactive),> 100 µM (inactive),> 100 µM (inactive),> 100 µM (inactive),–,–
C/C(=N\Nc1nc2ccccc2s1)c1ccncn1,0.719 µM (active),0.145 µM (active),0.126 µM (active),0.245 µM (active),0.532 µM (active),–,0.485 µM (active),–,0.705 µM (active),3.13 µM (inactive),0.286 µM (active),2.06 µM (inactive),1.74 µM (inactive),0.229 µM (active),1.44 µM (inactive),0.14 µM (active),0.56 µM (active),2.52 µM (inactive),4.15 µM (inactive)
O=C1C2CCCCC2C(=O)N1n1c(Cc2ccccc2)n[nH]c1=O (stereo unspecified),> 100 µM (inactive),> 100 µM (inactive),> 100 µM (inactive),> 100 µM (inactive),> 100 µM (inactive),–,> 100 µM (inactive),> 100 µM (inactive),> 100 µM (inactive),> 100 µM (inactive),> 100 µM (inactive),> 100 µM (inactive),> 100 µM (inactive),> 100 µM (inactive),> 100 µM (inactive),> 100 µM (inactive),> 100 µM (inactive),> 100 µM (inactive),> 100 µM (inactive)
COc1cccc(/C=N/NC(N)=O)c1O,> 100 µM (inactive),> 100 µM (inactive),> 100 µM (inactive),> 100 µM (inactive),> 100 µM (inactive),–,> 100 µM (inactive),> 100 µM (inactive),> 100 µM (inactive),> 100 µM (inactive),> 100 µM (inactive),–,> 100 µM (inactive),> 100 µM (inactive),> 100 µM (inactive),> 100 µM (inactive),> 100 µM (inactive),> 100 µM (inactive),–
COC(=O)/C=C1\C(CO[Si](C)(C)C(C)(C)C)OC(n2cc(C)c(=O)n(C)c2=O)C1O[Si](C)(C)C(C)(C)C (stereo unspecified),> 100 µM (inactive),–,> 100 µM (inactive),> 100 µM (inactive),71.4 µM (inactive),–,> 100 µM (inactive),89.5 µM (inactive),> 100 µM (inactive),> 100 µM (inactive),> 100 µM (inactive),48.5 µM (inactive),> 100 µM (inactive),> 100 µM (inactive),> 100 µM (inactive),> 100 µM (inactive),> 100 µM (inactive),–,–
O=C1c2cc(Cl)ccc2N=C(NCCCl)C2CSCN12 (stereo unspecified),> 100 µM (inactive),> 100 µM (inactive),> 100 µM (inactive),> 100 µM (inactive),> 100 µM (inactive),–,> 100 µM (inactive),> 100 µM (inactive),> 100 µM (inactive),> 100 µM (inactive),> 100 µM (inactive),> 100 µM (inactive),> 100 µM (inactive),> 100 µM (inactive),> 100 µM (inactive),> 100 µM (inactive),–,> 100 µM (inactive),> 100 µM (inactive)
CN(C)CC1CCC/C(=C\c2ccc(Cl)c(Cl)c2)C1=O (stereo unspecified),1.75 µM (inactive),2.59 µM (inactive),2.67 µM (inactive),10.8 µM (inactive),1.97 µM (inactive),1.97 µM (inactive),3.56 µM (inactive),–,4.42 µM (inactive),21 µM (inactive),3.18 µM (inactive),–,6.78 µM (inactive),–,3.61 µM (inactive),11.4 µM (inactive),8.45 µM (inactive),3.05 µM (inactive),2.33 µM (inactive)
O=C(NCCCCN(CCCNC(=O)C(F)(F)F)Cc1ccc2ccccc2c1)C(F)(F)F,15.6 µM (inactive),14.3 µM (inactive),14.9 µM (inactive),16.4 µM (inactive),16 µM (inactive),65.2 µM (inactive),17.2 µM (inactive),14.1 µM (inactive),15.3 µM (inactive),17.2 µM (inactive),16.9 µM (inactive),–,23 µM (inactive),15.3 µM (inactive),19.1 µM (inactive),17.3 µM (inactive),20.1 µM (inactive),17.6 µM (inactive),17.1 µM (inactive)
CC1=NOC2(C1)C(=O)Nc1ccccc12 (stereo unspecified),> 100 µM (inactive),30.3 µM (inactive),> 100 µM (inactive),> 100 µM (inactive),> 100 µM (inactive),> 100 µM (inactive),> 100 µM (inactive),> 100 µM (inactive),> 100 µM (inactive),> 100 µM (inactive),> 100 µM (inactive),> 100 µM (inactive),> 100 µM (inactive),24.4 µM (inactive),> 100 µM (inactive),50.8 µM (inactive),> 100 µM (inactive),> 100 µM (inactive),–
CC(C)C1=CC23CCC4C(C)(C(=O)O)CCCC4(C)C2CC1C1C(=O)N(c2ccccc2N2C(=O)C4C5CC6C7(C)CCCC(C)(C(=O)O)C7CCC6(C=C5C(C)C)C4C2=O)C(=O)C13 (stereo unspecified),14.4 µM (inactive),–,4.57 µM (inactive),3.64 µM (inactive),5.77 µM (inactive),6.38 µM (inactive),–,–,13.1 µM (inactive),12.2 µM (inactive),4.52 µM (inactive),3.23 µM (inactive),–,12.6 µM (inactive),–,12.1 µM (inactive),2.47 µM (inactive),18 µM (inactive),–

# Reference: ChEMBL document CHEMBL1201862, “PubChem BioAssay data set” (2004)
